Patent US7678787B2, “Pyrrolobenzodiazepine pyridine carboxamides and derivatives as follicle-stimulating hormone receptor antagonists” (Wyeth, priority 2005, dated 2010)
Where “and” joins values, the source holds several entries; their conditions need not be identical. Equal entries are not always repeated.

Experiments:
human FSH receptor = biological target: T1, human FSH receptor (Homo sapiens, UniProt P23945); assay: FSH receptor-dependent CRE-luciferase reporter gene assay (CHO FSH-R 6CRE-Luc cells); type: cell-based; conditions: dose-response format in presence of EC50 of purified human FSH; * n=3, ** n=2 averages
T1 construct: host or cells: CHO-K1 (CHO FSH-R 6CRE-Luc, 1D7 cells)
T1 sequence (P23945 18-695): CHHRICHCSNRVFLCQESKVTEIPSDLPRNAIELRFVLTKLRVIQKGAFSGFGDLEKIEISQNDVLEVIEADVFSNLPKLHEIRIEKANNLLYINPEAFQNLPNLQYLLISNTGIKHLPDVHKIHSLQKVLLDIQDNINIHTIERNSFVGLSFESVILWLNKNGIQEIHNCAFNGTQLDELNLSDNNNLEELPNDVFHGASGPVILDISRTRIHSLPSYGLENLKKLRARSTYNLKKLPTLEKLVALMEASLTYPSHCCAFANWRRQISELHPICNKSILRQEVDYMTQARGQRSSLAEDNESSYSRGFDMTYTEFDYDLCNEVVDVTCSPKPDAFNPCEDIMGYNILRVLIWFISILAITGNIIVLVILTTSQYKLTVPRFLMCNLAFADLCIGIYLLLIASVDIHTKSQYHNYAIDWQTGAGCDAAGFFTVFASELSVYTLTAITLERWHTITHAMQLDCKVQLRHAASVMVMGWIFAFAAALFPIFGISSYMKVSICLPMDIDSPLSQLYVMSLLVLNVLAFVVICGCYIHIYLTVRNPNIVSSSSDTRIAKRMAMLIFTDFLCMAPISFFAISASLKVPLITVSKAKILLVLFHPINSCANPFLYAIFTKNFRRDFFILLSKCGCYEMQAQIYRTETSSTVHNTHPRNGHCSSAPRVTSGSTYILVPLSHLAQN
In short: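 CHO-K1 cells stably expressing the recombinant human FSH receptor and a luciferase reporter controlled by 6 cAMP response elements were seeded at 50,000 cells/100 μl/well in 96-well white opaque plates. Antagonists were tested in dose-response against the EC50 of purified human FSH for 4 hours at 37° C, and luciferase chemiluminescence was read with a LucScreen kit.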

hFSH-R = biological target: T2, hFSH-R (Homo sapiens, UniProt P23945); assay: cAMP accumulation (RIA) in CHO-3D2 cells (hFSH-R), hFSH-induced; type: cell-based; conditions: inhibition of cAMP accumulation induced by hFSH at EC20, CHO-3D2 cells
T2 construct: expressed in transfected cells; host or cells: CHO-3D2 cells (CHO-K1 parental line)
T2 sequence (P23945 18-695): T1 sequence (P23945 18-695)
Method: IN VITRO BIO-ASSAY OF AGONISTS AND ANTAGONISTS TO THE FSH RECEPTOR. SELECTIVITY AND DEPENDENCY OF AGONISTS AND ANTAGONISTS TO THE FSH RECEPTOR
Compound Vehicle: Stock compounds were solubilized in 100% DMSO (Sigma-Aldrich Chemical Co., St. Louis, Mo.) at a concentration of 30 mM. The compounds subsequently were diluted in sterile assay medium consisting of Opti-MEM® I (Invitrogen/Life Technologies, Carlsbad, Calif.) with 0.1% (w/v) BSA (Sigma-Aldrich) prior to use in the bio-assay. The final concentration of DMSO in the assay was 0.1%.
Plated cells are then incubated at 37° C. in a humidified 5% CO2/95% air atmosphere.
Assay: On the day of the assay, cells were washed three times with 100 μl/well of assay medium consisting of Opti-MEM® I (Invitrogen/Life Technologies) with 0.1% (w/v) BSA (Sigma-Aldrich). Medium was removed and 100 μl of assay medium was added to each well. Plates were incubated for an additional 30 minutes at 37° C. […] Reactions were terminated by the addition of 50 μl of 0.2N hydrochloric acid to each well and cAMP-accumulation was measured by radioimmunoassay (RIA) using a commercially available kit (Amersham Biosciences, Piscataway, N.J.).
All test compounds were evaluated in a dose-response paradigm ranging from 0.01 to 30 μM. Controls and test compounds were evaluated in quadruplicate in a 96-well format.
Along with the test compounds, FSH was run also as a postive control in the agonist mode using concentrations ranging from 0.1-1000 ng/ml.
Data were analyzed by one-way analysis of variance and significant differences between treatments and control determined by Least Significant Difference test.
Test compounds were compared to the effect of purified human FSH.

Row | IC50 (human FSH receptor) | IC50 (hFSH-R) | melting point | Structure (SMILES)
1 | 116 nM | 100 nM | 122 to 126 °C and 118 °C and 122 °C | CC(O)c1ccccc1-c1ccc(C(=O)N2Cc3ccc(C(=O)NCc4cccnc4)n3Cc3ccccc32)cc1 (racemic) [Example 52]
2 | 1000 nM | 200 nM | 165 to 167 °C | COc1cc(C(=O)N2Cc3ccc(C(=O)NCc4cccnc4)n3Cc3ccccc32)ccc1-c1ccccc1C [Example 1]
3 | 920 nM | 80 nM | 148 to 150 °C | Cc1ccccc1-c1ccc(C(=O)N2Cc3ccc(C(=O)NCc4cccnc4)n3Cc3ccccc32)cc1C [Example 3]
4 | 950 nM | 800 nM | 170 to 173 °C | Cc1ccccc1-c1ccc(C(=O)N2Cc3ccc(C(=O)NCc4ccc[n+]([O-])c4)n3Cc3ccccc32)cc1C [Example 4]
5 | 8900 nM | 5400 nM | 180 to 184 °C | COc1ccccc1-c1ccc(C(=O)N2Cc3ccc(C(=O)NCc4cncc(Br)c4)n3Cc3ccccc32)cc1 [Example 6, N-[(5-BROMOPYRIDIN-3-YL)METHYLL]-10-[(2′-METHOXY-1,1′-BIPHENYL-4-YL)CARBONYL]-10,11-DIHYDRO-5H-PYRROLO[2,1-C][1,4]BENZODIAZEPINE-3-CARBOXAMIDE]
6 | 540 nM | 500 nM | 123 to 127 °C | COc1ccccc1-c1ccc(C(=O)N2Cc3ccc(C(=O)NCc4cccnc4)n3Cc3ccccc32)cc1 [Example 8]
7 | 1100 nM | 370 nM | 153 to 156 °C | CS(=O)(=O)c1ccccc1-c1ccc(C(=O)N2Cc3ccc(C(=O)NCc4cccnc4)n3Cc3ccccc32)cc1 [Example 15]
8 | 290 nM | 130 nM | 105 to 108 °C | N#CCc1ccccc1-c1ccc(C(=O)N2Cc3ccc(C(=O)NCc4cccnc4)n3Cc3ccccc32)cc1 [Example 17]
9 | 41 nM | 70 nM | 131 to 134 °C | NC(Cc1ccccc1-c1ccc(C(=O)N2Cc3ccc(C(=O)NCc4cccnc4)n3Cc3ccccc32)cc1)=NO [Example 18]
10 | 2000 nM | 800 nM | 176 to 177 °C | Cc1ccccc1-c1ccc(C(=O)N2Cc3ccc(C(=O)NCc4cccnc4)n3Cc3ccccc32)cc1 [Example 28]
11 | 900 nM | 400 nM | 171 to 172 °C | CC(=O)c1ccccc1-c1ccc(C(=O)N2Cc3ccc(C(=O)NCc4cccnc4)n3Cc3ccccc32)cc1C [Example 29]
12 | 7090 nM | 2000 nM | 149 to 150 °C | CNCc1ccccc1-c1ccc(C(=O)N2Cc3ccc(C(=O)NCc4cccnc4)n3Cc3ccccc32)cc1 [Example 42]
13 | 257 nM | 140 nM | 191 to 194 °C | O=C(NCc1cccnc1)c1ccc2n1Cc1ccccc1N(C(=O)c1ccc(-c3ccccc3CN3CCOCC3)cc1)C2 [Example 43]
14 | 2940 nM | 1710 nM | 199 to 202 °C | O=C(NCc1cccnc1)c1ccc2n1Cc1ccccc1N(C(=O)c1ccc(-c3ccccc3CN3CCCCC3)cc1)C2 [Example 44]
15 | 3580 nM | 780 nM | 95 to 104 °C | CN(C)Cc1ccccc1-c1ccc(C(=O)N2Cc3ccc(C(=O)NCc4cccnc4)n3Cc3ccccc32)cc1 [Example 45]
16 | 2190 nM | 370 nM | 115 to 120 °C | NCc1ccccc1-c1ccc(C(=O)N2Cc3ccc(C(=O)NCc4cccnc4)n3Cc3ccccc32)cc1 [Example 46]
17 | 650 nM | 200 nM | 119 to 124 °C | COc1ccccc1-c1ccc(C(=O)N2Cc3ccc(C(=O)NCc4cccnc4)n3Cc3ccccc32)cc1C [Example 47]

Row | IC50 (human FSH receptor) | IC50 (hFSH-R) | melting point | Structure (SMILES)
18 | 1600 nM | 300 nM | 139 to 143 °C | CCOc1ccccc1-c1ccc(C(=O)N2Cc3ccc(C(=O)NCc4cccnc4)n3Cc3ccccc32)cc1C [Example 48]
19 | 600 nM | 100 nM | 163 to 164 °C | COCc1ccccc1-c1ccc(C(=O)N2Cc3ccc(C(=O)NCc4cccnc4)n3Cc3ccccc32)cc1C [Example 49]
20 | 290 nM | 100 nM | 149 to 150 °C | CC(=O)c1ccccc1-c1ccc(C(=O)N2Cc3ccc(C(=O)NCc4cccnc4)n3Cc3ccccc32)cc1 [Example 51]
21 | 1050 nM | 620 nM | 213 to 215 °C | CC(O)c1ccccc1-c1ccc(C(=O)N2Cc3ccc(C(=O)NCc4ccc[n+]([O-])c4)n3Cc3ccccc32)cc1 (centres unmarked) [Example 55, 10-{[2′-(1-HYDROXYETHYL)-1,1′-BIPHENYL-4-YL]CARBONYL}-N-[(1-OXIDOPYRIDIN-3-YL)METHYL]-10,11-DIHYDRO-5H-PYRROLO[2,1-C][1,4]BENZODIAZEPINE-3-CARBOXAMIDE]
22 | 1040 nM | 900 nM | 162 to 163 °C | O=Cc1ccccc1-c1ccc(C(=O)N2Cc3ccc(C(=O)NCc4cccnc4)n3Cc3ccccc32)cc1 [Example 56]
23 | 2120 nM | 700 nM | 108 to 112 °C | Cc1cc(C(=O)N2Cc3ccc(C(=O)NCc4cccnc4)n3Cc3ccccc32)ccc1-c1ccccc1 [Example 57]
24 | 400 nM | 200 nM | 111 to 115 °C | CCC(O)c1ccccc1-c1ccc(C(=O)N2Cc3ccc(C(=O)NCc4cccnc4)n3Cc3ccccc32)cc1 (centres unmarked) [Example 58]
25 | 100 nM | 60 nM | 119 to 121 °C | O=C(NCc1cccnc1)c1ccc2n1Cc1ccccc1N(C(=O)c1ccc(-c3ccccc3CO)cc1)C2 [Example 59]
26 | 100 nM | 50 nM | 156 to 157 °C | COCc1ccccc1-c1ccc(C(=O)N2Cc3ccc(C(=O)NCc4cccnc4)n3Cc3ccccc32)cc1 [Example 61]
27 | 1060 nM | 550 nM | 165 to 167 °C | O=C(NCc1cccnc1)c1ccc2n1Cc1ccccc1N(C(=O)c1ccc(-c3ccccc3/C=N/O)cc1)C2 [Example 62]
28 | 1180 nM | 380 nM | 179.5 to 180.5 °C | COC(=O)c1ccccc1-c1ccc(C(=O)N2Cc3ccc(C(=O)NCc4cccnc4)n3Cc3ccccc32)cc1 [Example 63]
29 | 5600 nM | 2400 nM | 176 to 177 °C | COc1cccc(-c2ccc(C(=O)N3Cc4ccc(C(=O)NCc5cccnc5)n4Cc4ccccc43)cc2C)c1 [Example 70]
30 | 10500 nM | 3100 nM | 176 to 177 °C | Cc1cc(C(=O)N2Cc3ccc(C(=O)NCc4cccnc4)n3Cc3ccccc32)ccc1I [Example 74]
31 | 5820 nM | 800 nM | – | CCN(CC)c1ccc(C(=O)N2Cc3ccc(C(=O)NCc4cccnc4)n3Cc3ccccc32)cc1 [Example 102]
32 | 3000 nM | 400 nM | – | Cc1cc(C(=O)N2Cc3ccc(C(=O)NCc4cccnc4)n3Cc3ccccc32)ccc1-c1cccs1 [Example 104]
33 | 10500 nM | 6700 nM | – | O=C(NCc1cccnc1)c1ccc2n1Cc1ccccc1N(C(=O)c1ccc(NCc3ccccc3)nc1)C2 [Example 119]
34 | 36500 nM | > 30000 nM | – | COc1ccc(CNc2ccc(C(=O)N3Cc4ccc(C(=O)NCc5cccnc5)n4Cc4ccccc43)cn2)cc1 [Example 122]
